# Patent publication US20170079966A1, “INHIBITION OF TUMOR CELL INTERACTIONS WITH THE MICROENVIRONMENT RESULTING IN A REDUCTION IN TUMOR GROWTH AND DISEASE PROGRESSION” (Deciphera Pharmaceuticals, LLC, priority 2014, published 2017)
# Experiments:
# TIE2 [1] = target: T1, TIE2 (Homo sapiens, UniProt Q02763); assay: Phospho-TIE2 Western blot in TIE2 expressing CHO-K1 cells; format: cell-based; design: expressed in transfected cells; host or cells: CHO-K1 (ATCC CCL-61), transient transfection; details: CHO cells transiently expressing TIE2; 4 hours; read-out: IC50, inhibiting the constitutive phosphorylation of TIE2
# Method: Briefly, cells were grown in F12K medium supplemented with 10% characterized fetal bovine serum (Invitrogen, Carlsbad, Calif.), 100 units/mL penicillin G, 100 μg/ml streptomycin, and 0.29 mg/mL L-glutamine (Invitrogen, Carlsbad, Calif.) at 37 degrees Celsius, 5% CO2, and 95% humidity.
# CHO K1 cells (1×10^5 cells/well) were added to a 24-well tissue-culture treated plate in 1 mL of RPMI1640 medium supplemented with 10% characterized fetal bovine serum and 1× non-essential amino acids (Invitrogen, Carlsbad, Calif.). Cells were then incubated overnight at 37 degrees Celsius, 5% CO2, and 95% humidity. Medium was aspirated, and 0.5 mL of medium was added to each well. Transfection-grade plasmid DNA (TIE2 gene Gateway cloned into pcDNA3.2™/V5-DEST expression vector, Invitrogen, Carlsbad, Calif.) was diluted to 5 μg/mL in room temperature Opti-MEM® I Medium without serum (Invitrogen, Carlsbad, Calif.). Two μL of Lipofectamine LTX Reagent (Invitrogen, Carlsbad, Calif.) was added per 0.5 μg of plasmid DNA. […] Fluorescence was detected using a Storm 840 phosphorimager (GE Healthcare, Piscataway, N.J.) in fluorescence mode. […] The 160 kDa phospho-TIE2 and total TIE2 bands were quantified using ImageQuant software (GE Healthcare, Piscataway, N.J.), and data was plotted using Prism software (GraphPad Software, San Diego, Calif.).
# Target sequence in this assay (Q02763 23-1124, species assumed): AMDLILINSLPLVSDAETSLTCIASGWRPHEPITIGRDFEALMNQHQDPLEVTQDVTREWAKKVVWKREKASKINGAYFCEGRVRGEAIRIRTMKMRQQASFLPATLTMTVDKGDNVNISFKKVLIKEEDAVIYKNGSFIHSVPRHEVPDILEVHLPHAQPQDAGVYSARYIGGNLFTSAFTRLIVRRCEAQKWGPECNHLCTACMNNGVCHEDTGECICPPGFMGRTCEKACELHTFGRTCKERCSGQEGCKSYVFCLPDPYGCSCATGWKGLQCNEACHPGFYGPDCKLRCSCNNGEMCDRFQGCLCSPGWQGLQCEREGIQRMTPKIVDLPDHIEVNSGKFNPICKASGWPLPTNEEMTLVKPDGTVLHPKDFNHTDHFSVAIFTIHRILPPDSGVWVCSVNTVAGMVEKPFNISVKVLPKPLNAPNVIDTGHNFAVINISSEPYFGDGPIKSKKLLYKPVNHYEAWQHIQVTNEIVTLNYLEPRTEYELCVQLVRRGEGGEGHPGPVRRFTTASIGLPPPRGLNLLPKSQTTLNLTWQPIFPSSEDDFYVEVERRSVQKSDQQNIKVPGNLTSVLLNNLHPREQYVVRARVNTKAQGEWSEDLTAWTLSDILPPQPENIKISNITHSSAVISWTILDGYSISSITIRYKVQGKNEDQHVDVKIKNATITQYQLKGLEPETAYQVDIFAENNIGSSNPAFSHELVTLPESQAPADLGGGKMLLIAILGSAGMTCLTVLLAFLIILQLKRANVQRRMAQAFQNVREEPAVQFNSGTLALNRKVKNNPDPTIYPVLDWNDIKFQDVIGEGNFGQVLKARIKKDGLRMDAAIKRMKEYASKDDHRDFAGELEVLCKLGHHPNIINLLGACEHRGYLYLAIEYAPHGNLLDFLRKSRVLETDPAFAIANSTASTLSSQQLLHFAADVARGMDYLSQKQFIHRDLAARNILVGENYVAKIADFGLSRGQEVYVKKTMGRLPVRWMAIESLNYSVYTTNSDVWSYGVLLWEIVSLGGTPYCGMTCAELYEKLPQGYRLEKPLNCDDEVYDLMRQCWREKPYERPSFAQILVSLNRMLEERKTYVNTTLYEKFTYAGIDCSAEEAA
# U87-MG xenograft glioma = assay: Orthotopic U87-MG xenograft efficacy model (BLI); format: in vivo, mice; details: after two weeks of treatment; bevacizumab 5 mg/kg IP every three days; Compound 1 10 mg/kg BID
# Method: Protocol for in vivo xenograft efficacy study. […] Treatments began on Day 31.
# The tumor cells were injected intracerebroventricularly (ICV) and tumor growth was monitored in vivo by quantitation of luciferase-mediated BLI.
# SKOV-3 = SKOV-3 ovarian xenograft model; details: in vivo
# TIE2 [2] = target: T1, TIE2; assay: HUVEC Phospho-TIE2 Western Blot Assay; format: cell-based; design: host or cells: HUVEC; details: 4 hours compound; 800 ng/mL ANG1 complex 15 minutes; read-out: IC50, ANG1-stimulated phospho-TIE2 in HUVECs
# Method: HUVEC cells (2.5×10^5 cells/well) were added to a 24-well tissue-culture treated plate in 1 mL of EGM-2 culture medium (Lonza, Walkersville, Md.). Cells were then incubated overnight at 37 degrees Celsius, 5% CO2, and 95% humidity. Media was then aspirated and 1 mL EBM-2 basal medium (Lonza, Walkersville, Md.) supplemented with 2% FBS (Invitrogen, Carlsbad, Calif.) was added. […] The plates were then incubated for 4 hours at 37 degrees Celsius, 5% CO2, and 95% humidity. During the incubation, histidine-tagged angiopoietin 1 (ANG1) growth factor (R&D Systems, Minneapolis, Minn.) was added to an anti-polyhistidine antibody (R&D Systems, Minneapolis, Minn.) for 30 minutes at room temperature to generate multimers of ANG1. […] The media was aspirated and the cells were washed with PBS. The cells were lysed using MPER lysis buffer (Pierce, Rockford, Ill.) containing Halt Phosphatase and Protease Inhibitors (Pierce, Rockford, Ill.) and Phosphatase inhibitor cocktail 2 (Sigma, St. Louis, Mo.) at 4° C. for 10 minutes with shaking. […] Fluorescence was detected using a Storm 840 phosphorimager (GE Healthcare, Piscataway, N.J.) in fluorescence mode. The 160 kDa phospho-TIE2 band was quantified using ImageQuant software (GE Healthcare, Piscataway, N.J.). Data was analyzed using Prism software (GraphPad Software, San Diego, Calif.) to calculate the IC50 value.
# Target sequence in this assay (Q02763 23-1124): as the sequence (Q02763 23-1124, species assumed) above
smiles,measurement,setting,value
"O=C(Nc1cc(Oc2cc(F)c(NC(=O)C3(C(=O)Nc4ccc(F)cc4)CC3)cc2F)ccn1)C1CC1 [Compound 1, N-(4-(2-(cyclopropanecarboxamido)pyridin-4-yloxy)-2,5-difluorophenyl)-N′-(4-fluorophenyl)cyclopropane-1,1-dicarboxamide]",IC50,TIE2 [1],2.4 nM
same,Decrease in BLI signal compared to vehicle,U87-MG xenograft glioma,90%
same,SKOV-3 tumor growth,SKOV-3,only weakly inhibited
same,IC50,TIE2 [2],1 nM
